According to ChEMBL document CHEMBL5291721, “A preclinical secondary pharmacology resource illuminates target-adverse drug reaction associations of marketed drugs” (Nat Commun, 2023):

What was measured:
[1] = target: T1, Estrogen receptor (Homo sapiens, UniProt P03372)
T1 sequence (P03372 whole entry): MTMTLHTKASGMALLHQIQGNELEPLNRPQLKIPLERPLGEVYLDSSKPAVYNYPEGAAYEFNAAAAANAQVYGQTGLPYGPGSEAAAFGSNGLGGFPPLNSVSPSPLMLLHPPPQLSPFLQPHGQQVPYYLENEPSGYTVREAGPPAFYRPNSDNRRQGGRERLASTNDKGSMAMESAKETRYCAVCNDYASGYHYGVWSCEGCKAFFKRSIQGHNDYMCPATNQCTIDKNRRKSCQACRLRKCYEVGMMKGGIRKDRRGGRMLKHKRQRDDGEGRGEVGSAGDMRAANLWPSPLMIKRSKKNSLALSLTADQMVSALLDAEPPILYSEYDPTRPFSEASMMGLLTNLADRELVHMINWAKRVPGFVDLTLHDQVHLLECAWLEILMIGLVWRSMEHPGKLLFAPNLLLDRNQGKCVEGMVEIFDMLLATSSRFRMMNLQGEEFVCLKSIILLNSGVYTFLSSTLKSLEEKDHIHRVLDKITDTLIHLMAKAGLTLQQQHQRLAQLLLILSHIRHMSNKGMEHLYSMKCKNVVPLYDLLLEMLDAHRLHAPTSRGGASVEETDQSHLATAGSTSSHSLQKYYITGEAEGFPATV

[2] = target: Kappa-type opioid receptor (Homo sapiens, UniProt P41145)
[3] = target: Muscarinic acetylcholine receptor M3 (Homo sapiens, UniProt P20309)
[4] = target: Sodium-dependent noradrenaline transporter (Homo sapiens, UniProt P23975)
[5] = target: Acetylcholinesterase (Homo sapiens, UniProt P22303); assay type: functional
[6] = target: D(3) dopamine receptor (Homo sapiens, UniProt P35462)
[7] = target: T2, Thromboxane A2 receptor (Homo sapiens, UniProt P21731); assay type: functional, cell-based
T2 sequence (P21731 whole entry): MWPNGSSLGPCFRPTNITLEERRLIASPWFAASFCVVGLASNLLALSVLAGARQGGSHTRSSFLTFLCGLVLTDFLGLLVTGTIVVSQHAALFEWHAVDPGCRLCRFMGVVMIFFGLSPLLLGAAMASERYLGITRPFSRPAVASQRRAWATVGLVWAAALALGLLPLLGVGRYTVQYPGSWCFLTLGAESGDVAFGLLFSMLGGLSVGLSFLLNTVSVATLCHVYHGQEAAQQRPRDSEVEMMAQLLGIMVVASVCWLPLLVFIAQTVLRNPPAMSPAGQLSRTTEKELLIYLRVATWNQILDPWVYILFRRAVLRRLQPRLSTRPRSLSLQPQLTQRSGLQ

[8] = target: T3, Alpha-1A adrenergic receptor (Homo sapiens, UniProt P35348); assay type: functional, cell-based
T3 sequence (P35348 whole entry): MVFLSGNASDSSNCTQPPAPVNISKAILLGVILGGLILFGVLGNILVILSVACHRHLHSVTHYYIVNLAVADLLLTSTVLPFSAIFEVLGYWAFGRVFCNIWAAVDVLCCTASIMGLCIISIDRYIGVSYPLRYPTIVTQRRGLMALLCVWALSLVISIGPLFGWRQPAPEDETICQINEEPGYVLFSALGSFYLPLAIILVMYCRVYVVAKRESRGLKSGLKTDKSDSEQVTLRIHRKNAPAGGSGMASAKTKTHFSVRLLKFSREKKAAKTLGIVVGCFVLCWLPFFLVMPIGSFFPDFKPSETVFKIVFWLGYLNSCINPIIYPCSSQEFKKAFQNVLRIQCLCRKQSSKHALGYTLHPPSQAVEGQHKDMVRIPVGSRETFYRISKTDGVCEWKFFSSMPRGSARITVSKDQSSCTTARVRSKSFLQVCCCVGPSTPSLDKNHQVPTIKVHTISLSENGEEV

[9] = target: Cannabinoid receptor 1 (Homo sapiens, UniProt P21554); assay type: functional, cell-based
[10] = target: Mu-type opioid receptor (Homo sapiens, UniProt P35372); assay: biochemical; assay type: functional
[11] = target: T4, Endothelin-1 receptor (Homo sapiens, UniProt P25101)
T4 sequence (P25101 whole entry): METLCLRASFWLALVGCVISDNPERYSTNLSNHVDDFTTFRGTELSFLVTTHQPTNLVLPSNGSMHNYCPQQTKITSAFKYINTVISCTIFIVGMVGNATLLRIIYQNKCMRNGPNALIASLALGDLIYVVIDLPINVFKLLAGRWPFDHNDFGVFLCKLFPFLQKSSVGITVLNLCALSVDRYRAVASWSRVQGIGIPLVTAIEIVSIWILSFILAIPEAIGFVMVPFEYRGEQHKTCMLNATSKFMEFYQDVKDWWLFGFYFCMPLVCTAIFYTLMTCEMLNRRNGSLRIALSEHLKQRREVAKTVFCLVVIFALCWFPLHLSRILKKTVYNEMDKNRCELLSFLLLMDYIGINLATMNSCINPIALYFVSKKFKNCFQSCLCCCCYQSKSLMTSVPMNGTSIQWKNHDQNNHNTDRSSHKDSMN

[12] = target: T5, Adenosine receptor A3 (Homo sapiens, UniProt P0DMS8)
T5 sequence (P0DMS8 whole entry): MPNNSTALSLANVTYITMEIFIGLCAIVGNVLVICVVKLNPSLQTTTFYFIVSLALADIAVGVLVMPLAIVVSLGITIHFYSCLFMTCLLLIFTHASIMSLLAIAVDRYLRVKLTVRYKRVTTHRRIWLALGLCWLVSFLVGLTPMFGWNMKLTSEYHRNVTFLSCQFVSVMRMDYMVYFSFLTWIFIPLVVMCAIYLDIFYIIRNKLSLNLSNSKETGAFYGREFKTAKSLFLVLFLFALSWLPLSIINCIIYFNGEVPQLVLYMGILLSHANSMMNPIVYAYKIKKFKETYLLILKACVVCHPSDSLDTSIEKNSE
Also: assay procedure not described here.

Sequence of Cannabinoid receptor 1 (P21554 whole entry): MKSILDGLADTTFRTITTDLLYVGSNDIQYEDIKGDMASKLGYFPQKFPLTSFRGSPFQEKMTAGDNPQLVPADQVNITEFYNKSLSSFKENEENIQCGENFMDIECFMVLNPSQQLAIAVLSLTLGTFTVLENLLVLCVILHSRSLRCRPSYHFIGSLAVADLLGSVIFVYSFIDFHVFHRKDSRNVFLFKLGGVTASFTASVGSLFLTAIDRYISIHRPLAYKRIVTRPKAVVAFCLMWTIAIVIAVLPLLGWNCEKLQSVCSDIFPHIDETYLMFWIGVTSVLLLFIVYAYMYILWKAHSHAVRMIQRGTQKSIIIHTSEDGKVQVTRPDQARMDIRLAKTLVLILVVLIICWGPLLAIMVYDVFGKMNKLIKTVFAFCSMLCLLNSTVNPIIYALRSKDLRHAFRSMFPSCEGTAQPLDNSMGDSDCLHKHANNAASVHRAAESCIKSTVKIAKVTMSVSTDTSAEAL
Sequence of Kappa-type opioid receptor (P41145 whole entry): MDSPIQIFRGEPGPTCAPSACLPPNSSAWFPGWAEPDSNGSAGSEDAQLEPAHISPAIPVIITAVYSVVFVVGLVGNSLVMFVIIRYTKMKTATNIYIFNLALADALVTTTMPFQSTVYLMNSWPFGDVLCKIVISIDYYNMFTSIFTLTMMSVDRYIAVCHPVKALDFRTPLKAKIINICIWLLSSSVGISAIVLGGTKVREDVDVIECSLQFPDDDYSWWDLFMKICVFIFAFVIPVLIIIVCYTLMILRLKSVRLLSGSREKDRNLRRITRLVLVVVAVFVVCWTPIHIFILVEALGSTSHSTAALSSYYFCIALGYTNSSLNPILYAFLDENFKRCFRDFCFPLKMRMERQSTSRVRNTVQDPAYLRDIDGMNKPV
Sequence of Mu-type opioid receptor (P35372 whole entry): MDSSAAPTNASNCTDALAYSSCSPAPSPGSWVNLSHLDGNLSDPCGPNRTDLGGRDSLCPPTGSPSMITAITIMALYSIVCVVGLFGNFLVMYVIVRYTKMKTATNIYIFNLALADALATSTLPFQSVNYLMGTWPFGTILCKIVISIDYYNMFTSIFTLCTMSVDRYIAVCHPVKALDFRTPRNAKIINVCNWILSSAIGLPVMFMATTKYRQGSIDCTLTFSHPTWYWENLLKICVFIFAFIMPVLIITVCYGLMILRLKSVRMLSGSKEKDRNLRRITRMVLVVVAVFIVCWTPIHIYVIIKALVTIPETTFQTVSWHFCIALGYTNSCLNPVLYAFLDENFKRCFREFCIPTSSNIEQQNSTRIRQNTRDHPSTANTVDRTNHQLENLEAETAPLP
Sequence of Muscarinic acetylcholine receptor M3 (P20309 whole entry): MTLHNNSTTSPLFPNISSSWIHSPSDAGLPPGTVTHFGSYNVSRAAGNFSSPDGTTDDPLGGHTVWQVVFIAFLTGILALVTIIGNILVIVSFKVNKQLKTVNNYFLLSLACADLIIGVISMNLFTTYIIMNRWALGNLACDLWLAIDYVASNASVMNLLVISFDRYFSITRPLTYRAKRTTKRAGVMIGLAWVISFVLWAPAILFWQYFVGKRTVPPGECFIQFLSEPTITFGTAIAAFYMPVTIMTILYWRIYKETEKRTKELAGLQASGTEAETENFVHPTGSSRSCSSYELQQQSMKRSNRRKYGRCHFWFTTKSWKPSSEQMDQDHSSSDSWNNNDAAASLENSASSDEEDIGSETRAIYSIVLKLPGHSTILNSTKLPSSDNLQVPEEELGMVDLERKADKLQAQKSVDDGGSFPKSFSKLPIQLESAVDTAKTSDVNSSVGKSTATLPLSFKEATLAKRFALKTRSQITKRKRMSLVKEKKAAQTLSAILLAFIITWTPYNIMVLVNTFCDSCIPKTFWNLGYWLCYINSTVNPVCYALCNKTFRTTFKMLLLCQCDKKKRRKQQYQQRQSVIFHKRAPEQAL
Sequence of D(3) dopamine receptor (P35462 whole entry): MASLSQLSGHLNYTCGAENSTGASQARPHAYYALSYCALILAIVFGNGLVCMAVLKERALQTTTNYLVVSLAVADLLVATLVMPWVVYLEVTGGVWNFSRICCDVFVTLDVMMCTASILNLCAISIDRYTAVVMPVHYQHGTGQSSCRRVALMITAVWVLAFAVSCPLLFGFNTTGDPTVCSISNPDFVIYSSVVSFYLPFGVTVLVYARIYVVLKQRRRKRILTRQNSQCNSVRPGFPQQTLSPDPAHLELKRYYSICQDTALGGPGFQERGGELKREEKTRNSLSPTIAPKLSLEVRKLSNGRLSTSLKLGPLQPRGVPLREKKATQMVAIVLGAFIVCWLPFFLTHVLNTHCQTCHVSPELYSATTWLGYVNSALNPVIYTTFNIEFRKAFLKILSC
Sequence of Acetylcholinesterase (P22303 whole entry): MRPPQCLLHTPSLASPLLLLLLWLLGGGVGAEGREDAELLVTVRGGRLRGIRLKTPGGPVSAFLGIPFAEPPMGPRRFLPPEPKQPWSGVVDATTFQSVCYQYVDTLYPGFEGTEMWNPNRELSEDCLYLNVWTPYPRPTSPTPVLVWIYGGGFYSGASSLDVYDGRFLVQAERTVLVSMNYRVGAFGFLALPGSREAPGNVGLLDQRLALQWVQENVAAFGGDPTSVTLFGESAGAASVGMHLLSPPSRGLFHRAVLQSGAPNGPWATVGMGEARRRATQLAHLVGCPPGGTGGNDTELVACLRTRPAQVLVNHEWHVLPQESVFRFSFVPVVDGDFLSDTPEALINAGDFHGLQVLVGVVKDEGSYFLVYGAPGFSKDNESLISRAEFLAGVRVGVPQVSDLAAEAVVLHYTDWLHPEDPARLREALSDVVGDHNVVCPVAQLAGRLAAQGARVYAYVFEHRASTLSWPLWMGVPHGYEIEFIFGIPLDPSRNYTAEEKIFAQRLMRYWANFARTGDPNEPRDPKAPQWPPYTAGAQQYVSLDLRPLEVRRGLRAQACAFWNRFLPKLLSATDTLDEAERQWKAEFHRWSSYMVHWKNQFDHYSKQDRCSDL
Sequence of Sodium-dependent noradrenaline transporter (P23975 whole entry): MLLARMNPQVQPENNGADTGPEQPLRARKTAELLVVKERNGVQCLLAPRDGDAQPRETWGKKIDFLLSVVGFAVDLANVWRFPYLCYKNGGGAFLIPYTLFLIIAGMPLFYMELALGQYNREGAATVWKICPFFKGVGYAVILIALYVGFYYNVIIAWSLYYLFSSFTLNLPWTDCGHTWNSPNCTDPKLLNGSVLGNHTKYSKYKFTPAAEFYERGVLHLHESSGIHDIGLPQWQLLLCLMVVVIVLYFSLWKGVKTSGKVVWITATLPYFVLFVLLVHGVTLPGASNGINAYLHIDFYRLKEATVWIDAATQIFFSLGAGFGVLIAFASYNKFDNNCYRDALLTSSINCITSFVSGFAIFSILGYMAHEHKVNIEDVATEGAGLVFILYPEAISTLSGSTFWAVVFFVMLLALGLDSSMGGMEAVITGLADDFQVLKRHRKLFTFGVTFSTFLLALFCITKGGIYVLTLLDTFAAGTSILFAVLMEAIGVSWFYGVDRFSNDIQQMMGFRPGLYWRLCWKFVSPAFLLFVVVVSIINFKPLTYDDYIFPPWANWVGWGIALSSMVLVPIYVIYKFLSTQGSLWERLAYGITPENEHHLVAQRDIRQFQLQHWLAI

| SMILES | AC50 [1] [µM] | AC50 [2] [µM] | AC50 [3] [µM] | AC50 [9] [µM] | AC50 [10] [µM] | AC50 [11] [µM] | other results |
| --- | --- | --- | --- | --- | --- | --- | --- |
| CCC[C@H](NC(=O)[C@@H]1[C@H]2CCC[C@H]2CN1C(=O)[C@@H](NC(=O)[C@@H](NC(=O)c1cnccn1)C1CCCCC1)C(C)(C)C)C(=O)C(=O)NC1CC1 | > 30 | > 10 | > 30 |  |  |  |  |
| CCCCC1C(=O)N(c2ccccc2)N(c2ccccc2)C1=O [PHENYLBUTAZONE] | > 10 | > 10 |  |  |  |  |  |
| CC[C@@H]([C@H](C)O)n1ncn(-c2ccc(N3CCN(c4ccc(OC[C@@H]5CO[C@@](Cn6cncn6)(c6ccc(F)cc6F)C5)cc4)CC3)cc2)c1=O [POSACONAZOLE] |  |  |  |  |  |  | AC50 [4]: > 30 µM; AC50 [5]: > 30 µM; AC50 [6]: > 30 µM; AC50 [7]: > 1 µM; AC50 [8]: > 1 µM |
| OC1(c2ccc(Cl)cc2)c2ccccc2C2=NCCN21 (configuration not stated) [MAZINDOL] | > 30 | > 30 | > 30 | > 30 | 16 | > 30 |  |
| CC1OC2(CS1)CN1CCC2CC1 (configuration not stated) [CEVIMELINE] | > 10 | > 10 | > 30 |  | > 30 |  |  |
| C[C@H](Cc1ccc(O)c(O)c1)[C@@H](C)Cc1ccc(O)c(O)c1 [MASOPROCOL] | 0.749 | 15 | > 30 | > 30 |  |  |  |
| CC(C)COCC(CN(Cc1ccccc1)c1ccccc1)N1CCCC1 (configuration not stated) [BEPRIDIL] | > 30 |  | 17 |  | 17 | > 30 |  |
| C[C@]12CCC(=O)C(O)=C1CC[C@@H]1[C@@H]2CC[C@]2(C)C(=O)CC[C@@H]12 [FORMESTANE] | > 30 |  | > 30 | > 30 | > 30 | > 30 |  |
| Cc1ccccc1N1CCN(CCc2nnc3n2CCCC3)CC1 [DAPIPRAZOLE] |  |  |  |  |  |  | AC50 [4]: > 30 µM; AC50 [5]: > 30 µM; AC50 [6]: 16.6 µM; AC50 [7]: > 30 µM; AC50 [12]: > 30 µM |
| CC(C)(C)C(=O)OCC(=O)[C@H]1CC[C@H]2[C@@H]3CCC4=CC(=O)CC[C@]4(C)[C@H]3CC[C@]12C [DESOXYCORTICOSTERONE PIVALATE] | > 30 | > 10 | > 30 | > 30 |  |  |  |
| [H]/N=C(/N)N/C(=N/[H])NCCc1ccccc1 [PHENFORMIN] | > 30 | > 10 | > 30 |  | > 30 | > 30 |  |
| CC(C)NCC(O)c1ccc(O)c(O)c1 (configuration not stated) [ISOPROTERENOL] |  | > 10 |  | > 30 |  | > 30 |  |
| CNCc1ccc(-c2[nH]c3cc(F)cc4c3c2CCNC4=O)cc1 [RUCAPARIB] | > 30 |  |  |  |  |  |  |
| Cc1noc(NS(=O)(=O)c2ccc(N)cc2)c1C [SULFISOXAZOLE] | > 10 | > 10 |  | > 30 |  |  |  |
| Cc1cc2cc3c(C)cc(=O)oc3c(C)c2o1 [TRIOXSALEN] | > 30 | > 10 |  |  | > 30 |  |  |
